# Reference: patent publication US11111247B2, “Pyrazolopyrimidine compounds and uses thereof” (Incyte Corporation, priority 2018, dated 2021)
# Like-named read-outs stand apart in the source and are kept apart here.
# Columns and labels:
# [1] = biological target: FGFR2 (Homo sapiens, UniProt P21802); experiment: pFGFR2 Functional Cell HTRF Assay (KATOIII cells); format: cell-based
# Description: To measure phosphorylated Fibroblast Growth Factor Receptor 2 (FGFR2), KATOIII cells (Human Gastric Carcinoma) were purchased from ATCC and maintained in Iscove's with 20% FBS (Gibco/Life Technologies). For the pFGFR2 assay, KATOIII cells were plated overnight in 5% FBS and Iscove's medium at 5×10^4 cells/well into Corning 96-well flat-bottom tissue culture treated plates. The next morning, 50 μl of fresh media with 0.5% FBS was incubated in the presence or absence of a concentration range of test compounds also at 50 μl, for 1 hour at 37° C., 5% CO2. Cell were washed with PBS, and lysed with Cell Signaling Lysis Buffer with standard Protease inhibitors for 45 min at room temperature. 4 μl total of Cis Bio Anti […] together were added to the lysate and mixed well (following directions of the kit). 16 μl was then transferred to 384 well Greiner white plates and stored at 4° C. overnight in the dark. Plates were read on the Pherastar plate reader at 665 nm and 620 nm wavelengths. IC50 determination was performed by fitting the curve of inhibitor percent inhibition versus the log of the inhibitor concentration using the GraphPad Prism 5.0 software. […] NT=Not tested.
# [2] = biological target: FGFR3 (Homo sapiens, UniProt P22607); experiment: pFGFR3 Functional Cell HTRF Assay (BAF3-TEL-FGFR3 cells); format: cell-based; details: 2 hours
# Sequence of FGFR3 (P22607 23-806 limits assumed): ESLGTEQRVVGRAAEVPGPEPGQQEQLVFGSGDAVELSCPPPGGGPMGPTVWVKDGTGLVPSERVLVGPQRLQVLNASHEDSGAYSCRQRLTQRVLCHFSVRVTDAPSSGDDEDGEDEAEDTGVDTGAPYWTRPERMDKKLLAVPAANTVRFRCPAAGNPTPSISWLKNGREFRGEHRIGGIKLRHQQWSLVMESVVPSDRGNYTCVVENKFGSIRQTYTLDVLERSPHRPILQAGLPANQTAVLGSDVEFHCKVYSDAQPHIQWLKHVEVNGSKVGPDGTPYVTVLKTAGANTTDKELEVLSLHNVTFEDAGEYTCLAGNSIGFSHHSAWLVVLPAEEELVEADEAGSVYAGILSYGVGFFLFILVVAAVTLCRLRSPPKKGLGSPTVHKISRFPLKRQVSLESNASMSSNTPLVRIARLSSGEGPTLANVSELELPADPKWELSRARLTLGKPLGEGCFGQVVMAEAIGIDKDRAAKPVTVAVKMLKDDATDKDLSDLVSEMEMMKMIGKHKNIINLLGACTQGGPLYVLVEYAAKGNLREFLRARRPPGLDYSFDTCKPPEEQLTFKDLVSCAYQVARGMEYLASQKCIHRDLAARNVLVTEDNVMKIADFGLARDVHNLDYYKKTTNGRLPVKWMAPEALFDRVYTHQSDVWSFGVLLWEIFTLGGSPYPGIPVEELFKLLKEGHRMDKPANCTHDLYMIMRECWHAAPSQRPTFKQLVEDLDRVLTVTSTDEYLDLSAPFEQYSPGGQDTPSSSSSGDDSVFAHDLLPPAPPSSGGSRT
# Description: (§1) To measure phosphorylated Fibroblast Growth Factor Receptor 1 and 3 (FGF1 and FGFR3), in house stable cell lines BAF3-TEL-FGFR1 or BAF3-TEL-FGFR3 were maintained in RPMI with 10% FBS and 1 μg/ml puromycin (Gibco/Life Technologies). […] The plates were gently shaken (100 rpm) for 2 minutes at room temperature to mix well and incubated for 2 hours in a single layer at 37° C., 5% CO2. 4 μl/well of 1/25 dilution of lysis buffer #3 (Cis Bio) was added with standard Protease inhibitors and shaken at 200 rpm at room temperature for 20 minutes. 4 μl total of the Cis Bio Tb-pFGFR Ab (10 ng) and d2-FGFR3 (1 ng) together were added to the lysate and mixed well. Plates were sealed and incubated at room temperature overnight in the dark. […] IC50 determination was performed by fitting the curve of inhibitor percent inhibition versus the log of the inhibitor concentration using the GraphPad Prism 5.0 software.
# [3] = biological target: FGFR2 (UP) (Homo sapiens (Human), UniProt P21802); experiment: FGFR Enzymatic Assay, FGFR2 un-phosphorylated; details: read-out: FGFR2 (UP) IC50; un-phosphorylated enzyme, ATP near or below Km
# Sequence of FGFR2 (UP) (P21802 22-821): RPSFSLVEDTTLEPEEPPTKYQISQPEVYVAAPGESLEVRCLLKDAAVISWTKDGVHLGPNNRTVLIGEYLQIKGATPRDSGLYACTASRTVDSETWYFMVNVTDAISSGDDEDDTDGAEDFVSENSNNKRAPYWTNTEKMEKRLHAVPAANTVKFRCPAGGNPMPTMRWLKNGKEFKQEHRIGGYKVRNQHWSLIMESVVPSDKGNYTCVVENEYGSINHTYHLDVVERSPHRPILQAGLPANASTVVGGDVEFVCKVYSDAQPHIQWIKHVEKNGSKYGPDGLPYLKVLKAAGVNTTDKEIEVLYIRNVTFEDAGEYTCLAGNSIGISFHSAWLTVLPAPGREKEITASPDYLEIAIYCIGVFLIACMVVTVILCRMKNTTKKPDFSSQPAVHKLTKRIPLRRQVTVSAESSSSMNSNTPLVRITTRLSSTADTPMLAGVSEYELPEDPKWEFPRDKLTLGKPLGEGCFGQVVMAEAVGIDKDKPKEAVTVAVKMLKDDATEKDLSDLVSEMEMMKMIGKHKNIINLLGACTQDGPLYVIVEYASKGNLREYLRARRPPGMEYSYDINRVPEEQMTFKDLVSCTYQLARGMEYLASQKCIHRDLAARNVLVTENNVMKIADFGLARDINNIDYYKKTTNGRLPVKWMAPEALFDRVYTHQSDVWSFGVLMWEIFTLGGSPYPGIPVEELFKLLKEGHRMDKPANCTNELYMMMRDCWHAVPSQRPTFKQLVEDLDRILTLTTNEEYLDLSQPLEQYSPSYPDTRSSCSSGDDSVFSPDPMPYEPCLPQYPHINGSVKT
# Description: (§2) The inhibitor potency of the exemplified compounds was determined in an enzyme discontinuous assay that measures peptide phosphorylation using FRET measurements to detect product formation. Inhibitors were serially diluted in DMSO and a volume of 0.2 μL was transferred to the wells of a 384-well plate. For the isoforms of FGFR (−1, −2, −3 wild-type and mutant isoforms, −4) including phosphorylated (P) and un-phosphorylated (UP) proteins, a 5 μL/well volume of enzyme diluted in assay buffer (50 mM HEPES, 10 mM MgCl2, 1 mM EGTA, 0.01% Tween-20, 5 mM DTT, pH 7.5) was added to the plate and pre-incubated with inhibitor for 5 to 15 minutes at ambient temperature. Appropriate controls (enzyme blank and enzyme with no inhibitor) were included on the plate. The reaction was initiated by the addition of a 5 μL/well volume containing both biotinylated [sequence] […] The plate was allowed to equilibrate for −10 minutes at ambient temperature before scanning on a PheraStar plate reader (BMG Labtech) instrument.
# (§3) Either GraphPad prism or XLfit was used to analyze the data. The IC50 values were derived by fitting the data to a four parameter logistic equation producing a sigmoidal dose-response curve with a variable Hill coefficient. Prism equation: Y=Bottom+(Top−Bottom)/(1+10^((LogIC50−X)*Hill slope)); XLfit equation: Y=(A+((B−A)/(1+((X/C)^D)))) where X is the logarithm of inhibitor concentration and Y is the response.
# [4] = biological target: FGFR2 (P) (Homo sapiens (Human), UniProt P21802); experiment: FGFR Enzymatic Assay, FGFR2 phosphorylated; details: read-out: FGFR2 (P) IC50; phosphorylated enzyme, ATP near or below Km
# Sequence of FGFR2 (P) (P21802 22-821): as above
# [5] = biological target: FGFR3 (UP) (Homo sapiens (Human), UniProt P22607); experiment: FGFR Enzymatic Assay, FGFR3 un-phosphorylated; details: read-out: FGFR3 (UP) IC50; un-phosphorylated enzyme, ATP near or below Km
# Sequence of FGFR3 (UP) (P22607 23-806): as the sequence (P22607 23-806 limits assumed) above
# Description: as §2, §3
# [6] = biological target: FGFR1 (UP) (Homo sapiens (Human), UniProt P11362); experiment: FGFR Enzymatic Assay, FGFR1 un-phosphorylated
# Sequence of FGFR1 (UP) (P11362 22-822): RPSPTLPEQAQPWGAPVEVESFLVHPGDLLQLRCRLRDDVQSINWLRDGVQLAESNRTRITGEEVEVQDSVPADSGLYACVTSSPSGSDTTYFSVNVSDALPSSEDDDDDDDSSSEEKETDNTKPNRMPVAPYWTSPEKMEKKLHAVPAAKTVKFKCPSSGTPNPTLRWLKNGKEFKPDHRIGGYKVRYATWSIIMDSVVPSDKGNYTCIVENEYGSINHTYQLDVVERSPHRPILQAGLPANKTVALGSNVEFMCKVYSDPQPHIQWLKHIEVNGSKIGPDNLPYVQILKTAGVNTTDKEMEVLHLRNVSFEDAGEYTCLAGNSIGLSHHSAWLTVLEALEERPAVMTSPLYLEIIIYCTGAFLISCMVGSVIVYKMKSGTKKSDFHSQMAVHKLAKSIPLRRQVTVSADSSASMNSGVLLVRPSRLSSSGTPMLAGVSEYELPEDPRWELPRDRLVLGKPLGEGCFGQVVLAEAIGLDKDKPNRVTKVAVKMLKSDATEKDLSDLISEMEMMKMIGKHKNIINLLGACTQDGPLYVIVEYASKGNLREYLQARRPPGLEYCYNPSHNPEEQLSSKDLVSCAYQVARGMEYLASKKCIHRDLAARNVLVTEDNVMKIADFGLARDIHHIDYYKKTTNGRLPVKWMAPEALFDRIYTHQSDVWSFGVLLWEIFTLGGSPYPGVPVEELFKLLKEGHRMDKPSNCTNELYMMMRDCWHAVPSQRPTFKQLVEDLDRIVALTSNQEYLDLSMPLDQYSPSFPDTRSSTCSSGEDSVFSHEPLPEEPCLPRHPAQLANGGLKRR
# [7] = biological target: ALK2 (aa 147-end) (Homo sapiens (Human), UniProt Q04771); experiment: ALK2 HTRF Assay; format: biochemical
# Sequence of ALK2 (aa 147-end) (Q04771 147-509): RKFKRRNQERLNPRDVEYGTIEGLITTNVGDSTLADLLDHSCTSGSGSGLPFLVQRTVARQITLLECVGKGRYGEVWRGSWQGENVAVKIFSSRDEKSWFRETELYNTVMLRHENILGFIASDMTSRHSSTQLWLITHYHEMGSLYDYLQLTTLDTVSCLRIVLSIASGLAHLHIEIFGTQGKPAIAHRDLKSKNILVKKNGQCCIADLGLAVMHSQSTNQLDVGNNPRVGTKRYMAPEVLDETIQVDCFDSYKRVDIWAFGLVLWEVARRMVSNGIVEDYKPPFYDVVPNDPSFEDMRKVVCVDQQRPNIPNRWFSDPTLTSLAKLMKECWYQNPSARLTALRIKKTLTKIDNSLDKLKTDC
# [8] = system: RT112 cells; experiment: Luminescent Viability Assay (LVA, FGFR3); format: cell-based; details: Homo sapiens, RT-112, 72 h, 3 days, CellTiter-Glo
# Procedure, shortened: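 RT112 bladder cells grown in RPMI with 10% FBS were exposed to a compound concentration range for 3 days. Viability read by CellTiter-Glo luminescence; IC50 fitted from percent inhibition versus log concentration.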
# [9] = biological target: FGFR1 (Homo sapiens, UniProt P11362); experiment: pFGFR1 Functional Cell HTRF Assay (BAF3-TEL-FGFR1 cells); format: cell-based
# Sequence of FGFR1 (P11362 22-822 limits assumed): as the sequence (P11362 22-822) above
# Description: as §1
# [10] = system: ALK2 mutant DIPG cell; details: ALK2 mutant DIPG cells; cited from earlier work
# [11] = read-out: FGFR1 (UP) IC50, un-phosphorylated enzyme, ATP near or below Km
# [12] = 1 hour, read-out: FGFR2 HTRF IC50
# [13] = BAF3-TEL-FGFR1 cells, 2 hours, read-out: FGFR1 HTRF IC50
# [14] = read-out: ALK2 100 μM IC50, 100 uM ATP
# Sequence of FGFR2 (P21802 22-821 limits assumed): as the sequence (P21802 22-821) above
SMILES,"IC50 ([1]; read-out: FGFR2 HTRF IC50, 1 hour)",IC50 [2],IC50 [3],IC50 [4],IC50 [5],"IC50 [6, 11]","IC50 [1, 12]","IC50 ([7]; ALK2 3 μM IC50, 3 uM ATP)","IC50 ([7]; ALK2 100 μM IC50, 100 uM ATP)",IC50 [8],"IC50 [9, 13]",IC50 [6],IC50 [9],inhibition of ALK2 mutant DIPG cell viability [10],"IC50 [7, 14]"
"CN1CC2CCC(C1=O)N2c1ncc2[nH]nc(-c3cnn(C4CC4)c3)c2n1 (single isomer, unassigned) [Example 66, 8-(3-(1-Cyclopropyl-1H-pyrazol-4-yl)-1H-pyrazolo[4,3-d]pyrimidin-5-yl)-3-methyl-3,8-diazabicyclo[3.2.1]octan-2-one]",< 100 nM,,,,,,,,,,,,,,
"Cc1cc(-n2cc(-c3n[nH]c4cnc(N5C6CCC5C(=O)N(C)C6)nc34)cn2)ccc1C#N (centres unmarked) [Example 76, 2-Methyl-4-(4-(5-(3-methyl-2-oxo-3,8-diazabicyclo[3.2.1]octan-8-yl)-1H-pyrazolo[4,3-d]pyrimidin-3-yl)-1H-pyrazol-1-yl)benzonitrile]",,< 100 nM,< 100 nM,< 100 nM,< 100 nM,< 100 nM,< 100 nM,500 to 2000 nM,500 to 2000 nM,< 100 nM,,,,,
"Cn1cc(-c2n[nH]c3cnc(N4C5CCC4c4cn[nH]c4C5)nc23)cn1 (centres unmarked) [Example 45, 9-(3-(1-Methyl-1H-pyrazol-4-yl)-1H-pyrazolo[4,3-d]pyrimidin-5-yl)-1,4,5,6,7,8-hexahydro-4,7-epiminocyclohepta[c]pyrazole]",,100 to 500 nM,< 100 nM,< 100 nM,< 100 nM,< 100 nM,,500 to 2000 nM,500 to 2000 nM,100 to 500 nM,500 to 2000 nM,,,,
"CCN1CC2CCC(C1=O)N2c1ncc2[nH]nc(-c3cnn(C)c3)c2n1 (centres unmarked) [Example 50, 3-Ethyl-8-(3-(1-methyl-1H-pyrazol-4-yl)-1H-pyrazolo[4,3-d]pyrimidin-5-yl)-3,8-diazabicyclo[3.2.1]octan-2-one]",,100 to 500 nM,,< 100 nM,< 100 nM,,,,,100 to 500 nM,,100 to 500 nM,100 to 500 nM,,
c1ccc2c(-c3cnn4cc(-c5ccc(N6CCNCC6)cc5)cnc34)ccnc2c1 [LDN-19318917],,,,,,,,,,,,,,significant inhibition,
"CN1CC2CCC(C1=O)N2c1ncc2[nH]nc(-c3cnn(-c4ccc(N(C)C)nc4)c3)c2n1 (centres unmarked) [Example 72, 8-(3-(1-(6-(Dimethylamino)pyridin-3-yl)-1H-pyrazol-4-yl)-1H-pyrazolo[4,3-d]pyrimidin-5-yl)-3-methyl-3,8-diazabicyclo[3.2.1]octan-2-one]",,< 100 nM,< 100 nM,< 100 nM,< 100 nM,< 100 nM,< 100 nM,500 to 2000 nM,500 to 2000 nM,100 to 500 nM,,,,,
"CN1CC2CCC(C1=O)N2c1ncc2[nH]nc(-c3cnn(-c4ccc(C#N)cc4)c3)c2n1 (centres unmarked) [Example 70, 4-(4-(5-(3-Methyl-2-oxo-3,8-diazabicyclo[3.2.1]octan-8-yl)-1H-pyrazolo[4,3-d]pyrimidin-3-yl)-1H-pyrazol-1-yl)benzonitrile]",,< 100 nM,< 100 nM,< 100 nM,< 100 nM,< 100 nM,< 100 nM,500 to 2000 nM,,< 100 nM,,,,,> 2000 nM
"CNC(=O)c1ccc(-n2cc(-c3n[nH]c4cnc(N5C6CCC5C(=O)N(C)C6)nc34)cn2)cc1F (centres unmarked) [Example 81, 2-Fluoro-N-methyl-4-(4-(5-(3-methyl-2-oxo-3,8-diazabicyclo[3.2.1]octan-8-yl)-1H-pyrazolo[4,3-d]pyrimidin-3-yl)-1H-pyrazol-1-yl)benzamide]",,< 100 nM,,< 100 nM,< 100 nM,< 100 nM,< 100 nM,500 to 2000 nM,500 to 2000 nM,< 100 nM,,,,,
"CN1CC2CCC(C1=O)N2c1ncc2[nH]nc(-c3cnn(C)c3)c2n1 (centres unmarked) [Example 49, 3-Methyl-8-(3-(1-methyl-1H-pyrazol-4-yl)-1H-pyrazolo[4,3-d]pyrimidin-5-yl)-3,8-diazabicyclo[3.2.1]octan-2-one]",,< 100 nM,< 100 nM,< 100 nM,< 100 nM,< 100 nM,,500 to 2000 nM,,100 to 500 nM,500 to 2000 nM,,,,> 2000 nM
"Cc1cc(-n2cc(-c3n[nH]c4cnc(N5C6CCC5C(=O)N(C)C6)nc34)cn2)ccn1 (centres unmarked) [Example 71, 3-Methyl-8-(3-(1-(2-methylpyridin-4-yl)-1H-pyrazol-4-yl)-1H-pyrazolo[4,3-d]pyrimidin-5-yl)-3,8-diazabicyclo[3.2.1]octan-2-one]",,< 100 nM,,< 100 nM,< 100 nM,< 100 nM,< 100 nM,500 to 2000 nM,500 to 2000 nM,< 100 nM,,,,,
"CN1CC2CCC(C1=O)N2c1ncc2[nH]nc(-c3cnn(-c4ccncc4)c3)c2n1 (centres unmarked) [Example 68, 3-Methyl-8-(3-(1-(pyridin-4-yl)-1H-pyrazol-4-yl)-1H-pyrazolo[4,3-d]pyrimidin-5-yl)-3,8-diazabicyclo[3.2.1]octan-2-one]",,< 100 nM,< 100 nM,< 100 nM,< 100 nM,< 100 nM,< 100 nM,500 to 2000 nM,,100 to 500 nM,,,,,> 2000 nM
"CN1CC2CCC(C1=O)N2c1ncc2[nH]nc(-c3cnn(C4CCC4)c3)c2n1 (single isomer, unassigned) [Example 64, 8-(3-(1-Cyclobutyl-1H-pyrazol-4-yl)-1H-pyrazolo[4,3-d]pyrimidin-5-yl)-3-methyl-3,8-diazabicyclo[3.2.1]octan-2-one]",,,< 100 nM,< 100 nM,,,< 100 nM,100 to 500 nM,500 to 2000 nM,,,,,,
"CC(C)N1CC2CCC(C1=O)N2c1ncc2[nH]nc(-c3cnn(C)c3)c2n1 (centres unmarked) [Example 52, 3-Isopropyl-8-(3-(1-methyl-1H-pyrazol-4-yl)-1H-pyrazolo[4,3-d]pyrimidin-5-yl)-3,8-diazabicyclo[3.2.1]octan-2-one]",,100 to 500 nM,,< 100 nM,< 100 nM,,,,,100 to 500 nM,,100 to 500 nM,100 to 500 nM,,
